According to EPA's CvTdb concentration-time database (doi:10.1093/toxsci/kfy020):

Assays:
Assay in all cases: concentration in plasma after dosing
rat [1] = settings: dosed: Simazine, 0.4000000000 mg/kg, iv, male, Sprague-Dawley
rat [2] = settings: dosed: Simazine, 2.0000000000 mg/kg, oral, male, Sprague-Dawley
rat [3] = settings: dosed: Simazine, 2.0000000000 mg/kg, oral, male, Sprague-Dawley; remark: listed apart in the source
rat [4] = settings: male, Sprague-Dawley
rat [5] = settings: dosed: Simazine, 0.4000000000 mg/kg, iv, male, Sprague-Dawley; remark: listed apart in the source
rat [6] = settings: dosed: Simazine, 0.4000000000 mg/kg, iv, male, Sprague-Dawley; remark: listed apart in the source
rat [7] = settings: dosed: Simazine, 2.0000000000 mg/kg, oral, male, Sprague-Dawley; remark: listed apart in the source
rat [8] = settings: dosed: Resmethrin, 4.0000000000 mg/kg, oral, male, Sprague-Dawley
rat [9] = settings: dosed: Resmethrin, 4.0000000000 mg/kg, oral, male, Sprague-Dawley; remark: listed apart in the source
rat [10] = settings: dosed: Resmethrin, 4.0000000000 mg/kg, oral, male, Sprague-Dawley; remark: listed apart in the source
rat [11] = settings: dosed: Resmethrin, 0.8000000000 mg/kg, iv, male, Sprague-Dawley
rat [12] = settings: dosed: Resmethrin, 0.8000000000 mg/kg, iv, male, Sprague-Dawley; remark: listed apart in the source
rat [13] = settings: dosed: S-Bioallethrin, 0.8000000000 mg/kg, iv, male, Sprague-Dawley
rat [14] = settings: dosed: S-Bioallethrin, 4.0000000000 mg/kg, oral, male, Sprague-Dawley
rat [15] = settings: dosed: S-Bioallethrin, 0.8000000000 mg/kg, iv, male, Sprague-Dawley; remark: listed apart in the source
rat [16] = settings: dosed: S-Bioallethrin, 0.8000000000 mg/kg, iv, male, Sprague-Dawley; remark: listed apart in the source
rat [17] = settings: dosed: Permethrin, 5.0000000000 mg/kg, oral, male, Sprague-Dawley
rat [18] = settings: dosed: Permethrin, 5.0000000000 mg/kg, oral, male, Sprague-Dawley; remark: listed apart in the source
rat [19] = settings: dosed: Permethrin, 5.0000000000 mg/kg, oral, male, Sprague-Dawley; remark: listed apart in the source
rat [20] = settings: dosed: Permethrin, 1.0000000000 mg/kg, iv, male, Sprague-Dawley
rat [21] = settings: dosed: Permethrin, 1.0000000000 mg/kg, iv, male, Sprague-Dawley; remark: listed apart in the source
rat [22] = settings: dosed: Permethrin, 5.0000000000 mg/kg, oral, male, Sprague-Dawley; remark: listed apart in the source
rat [23] = settings: dosed: Permethrin, 5.0000000000 mg/kg, oral, male, Sprague-Dawley; remark: listed apart in the source

CCNc1nc(Cl)nc(NCC)n1 [Simazine]
concentration in plasma (rat [1]; 5 min): 127 ng/mL
concentration in plasma (rat [1]; 10 min): 95.5 ng/mL
concentration in plasma (rat [1]; 0.5 h): 34.8 ng/mL
concentration in plasma (rat [1]; 1 h): 5.3 ng/mL
concentration in plasma (rat [2]; 0.25 h): 68.5 ng/mL
concentration in plasma (rat [2]; 0.5 h): 23.2 ng/mL
concentration in plasma (rat [2]; 1 h): 5 ng/mL
concentration in plasma (rat [2]; 2 h): 1.2 ng/mL
concentration in plasma (rat [3]; 0.25 h): 10.5 ng/mL
concentration in plasma (rat [3]; 0.5 h): 3.7 ng/mL
concentration in plasma (rat [3]; 1 h): 1.3 ng/mL
concentration in plasma (rat [3]; 2 h): 2.6 ng/mL
concentration in plasma (rat [3]; 4 h): 1.5 ng/mL
concentration in plasma (rat [4]; 5 min, dosed: Simazine, 0.4000000000 mg/kg, iv): 91.6 ng/mL
concentration in plasma (rat [4]; 10 min, dosed: Simazine, 0.4000000000 mg/kg, iv): 101 ng/mL
concentration in plasma (rat [4]; 0.25 h, dosed: Simazine, 2.0000000000 mg/kg, oral): 6.9 ng/mL
concentration in plasma (rat [4]; 0.5 h, dosed: Simazine, 0.4000000000 mg/kg, iv): 43 ng/mL
concentration in plasma (rat [4]; 0.5 h, dosed: Simazine, 2.0000000000 mg/kg, oral): 2.4 ng/mL
concentration in plasma (rat [4]; 1 h, dosed: Simazine, 0.4000000000 mg/kg, iv): 3.7 ng/mL
concentration in plasma (rat [5]; 5 min): 63.7 ng/mL
concentration in plasma (rat [5]; 10 min): 60.4 ng/mL
concentration in plasma (rat [5]; 0.5 h): 23.2 ng/mL
concentration in plasma (rat [5]; 1 h): 4.5 ng/mL
concentration in plasma (rat [6]; 5 min): 52 ng/mL
concentration in plasma (rat [6]; 10 min): 148 ng/mL
concentration in plasma (rat [6]; 0.5 h): 46.6 ng/mL
concentration in plasma (rat [6]; 1 h): 9.7 ng/mL
concentration in plasma (rat [6]; 2 h): 1.1 ng/mL
concentration in plasma (rat [7]; 0.25 h): 6.9 ng/mL
concentration in plasma (rat [7]; 0.5 h): 5 ng/mL
concentration in plasma (rat [7]; 1 h): 1 ng/mL
concentration in plasma (rat [7]; 2 h): 4.6 ng/mL
concentration in plasma (rat [7]; 4 h): 1 ng/mL

CC(C)=CC1C(C(=O)OCc2coc(Cc3ccccc3)c2)C1(C)C (stereo not given) [Resmethrin]
concentration in plasma (rat [8]; 0.25 h): 7 ng/mL
concentration in plasma (rat [8]; 0.5 h): 10.7 ng/mL
concentration in plasma (rat [8]; 1 h): 39 ng/mL
concentration in plasma (rat [8]; 2 h): 12.8 ng/mL
concentration in plasma (rat [8]; 4 h): 2.3 ng/mL
concentration in plasma (rat [8]; 8 h): 4.7 ng/mL
concentration in plasma (rat [8]; 12 h): 1.8 ng/mL
concentration in plasma (rat [9]; 0.25 h): 13.4 ng/mL
concentration in plasma (rat [9]; 0.5 h): 11.8 ng/mL
concentration in plasma (rat [9]; 1 h): 44.1 ng/mL
concentration in plasma (rat [9]; 2 h): 12.4 ng/mL
concentration in plasma (rat [9]; 4 h): 5.6 ng/mL
concentration in plasma (rat [9]; 8 h): 4 ng/mL
concentration in plasma (rat [10]; 0.25 h): 17.4 ng/mL
concentration in plasma (rat [10]; 0.5 h): 15.8 ng/mL
concentration in plasma (rat [10]; 1 h): 17.7 ng/mL
concentration in plasma (rat [10]; 2 h): 10.6 ng/mL
concentration in plasma (rat [10]; 4 h): 4.2 ng/mL
concentration in plasma (rat [10]; 8 h): 4.6 ng/mL
concentration in plasma (rat [4]; 5 min, dosed: Resmethrin, 0.8000000000 mg/kg, iv): 72.9 ng/mL
concentration in plasma (rat [4]; 10 min, dosed: Resmethrin, 0.8000000000 mg/kg, iv): 30.4 ng/mL
concentration in plasma (rat [4]; 0.25 h, dosed: Resmethrin, 4.0000000000 mg/kg, oral): 12.6 ng/mL
concentration in plasma (rat [4]; 0.5 h, dosed: Resmethrin, 0.8000000000 mg/kg, iv): 13.9 ng/mL
concentration in plasma (rat [4]; 0.5 h, dosed: Resmethrin, 4.0000000000 mg/kg, oral): 37.2 ng/mL
concentration in plasma (rat [4]; 1 h, dosed: Resmethrin, 0.8000000000 mg/kg, iv): 1.6 ng/mL
concentration in plasma (rat [4]; 1 h, dosed: Resmethrin, 4.0000000000 mg/kg, oral): 32.8 ng/mL
concentration in plasma (rat [4]; 2 h, dosed: Resmethrin, 0.8000000000 mg/kg, iv): 8.1 ng/mL
concentration in plasma (rat [4]; 2 h, dosed: Resmethrin, 4.0000000000 mg/kg, oral): 13.5 ng/mL
concentration in plasma (rat [4]; 4 h, dosed: Resmethrin, 4.0000000000 mg/kg, oral): 13.7 ng/mL
concentration in plasma (rat [4]; 8 h, dosed: Resmethrin, 4.0000000000 mg/kg, oral): 6.1 ng/mL
concentration in plasma (rat [11]; 5 min): 52.5 ng/mL
concentration in plasma (rat [11]; 10 min): 20.6 ng/mL
concentration in plasma (rat [11]; 0.5 h): 12.1 ng/mL
concentration in plasma (rat [11]; 1 h): 0.7 ng/mL
concentration in plasma (rat [11]; 2 h): 5.6 ng/mL
concentration in plasma (rat [12]; 5 min): 52.7 ng/mL
concentration in plasma (rat [12]; 10 min): 25 ng/mL
concentration in plasma (rat [12]; 0.5 h): 9.1 ng/mL
concentration in plasma (rat [12]; 1 h): 4.1 ng/mL
concentration in plasma (rat [12]; 2 h): 1 ng/mL

C=CCC1=C(C)[C@@H](OC(=O)[C@@H]2[C@@H](C=C(C)C)C2(C)C)CC1=O [S-Bioallethrin]
concentration in plasma (rat [13]; 10 min): 76.7 ng/mL
concentration in plasma (rat [13]; 0.5 h): 24.5 ng/mL
concentration in plasma (rat [13]; 1 h): 5.2 ng/mL
concentration in plasma (rat [13]; 2 h): 6.9 ng/mL
concentration in plasma (rat [13]; 4 h): 2.9 ng/mL
concentration in plasma (rat [13]; 8 h): 1.5 ng/mL
concentration in plasma (rat [14]; 0.25 h): 2.5 ng/mL
concentration in plasma (rat [14]; 0.5 h): 2.2 ng/mL
concentration in plasma (rat [14]; 1 h): 4.9 ng/mL
concentration in plasma (rat [4]; 5 min, dosed: S-Bioallethrin, 0.8000000000 mg/kg, iv): 19.2 ng/mL
concentration in plasma (rat [4]; 0.5 h, dosed: S-Bioallethrin, 0.8000000000 mg/kg, iv): 2.7 ng/mL
concentration in plasma (rat [4]; 0.5 h, dosed: S-Bioallethrin, 4.0000000000 mg/kg, oral): 1.6 ng/mL
concentration in plasma (rat [4]; 1 h, dosed: S-Bioallethrin, 0.8000000000 mg/kg, iv): 3 ng/mL
concentration in plasma (rat [4]; 1 h, dosed: S-Bioallethrin, 4.0000000000 mg/kg, oral): 6 ng/mL
concentration in plasma (rat [4]; 2 h, dosed: S-Bioallethrin, 0.8000000000 mg/kg, iv): 3.4 ng/mL
concentration in plasma (rat [4]; 2 h, dosed: S-Bioallethrin, 4.0000000000 mg/kg, oral): 1.2 ng/mL
concentration in plasma (rat [4]; 4 h, dosed: S-Bioallethrin, 0.8000000000 mg/kg, iv): 1.6 ng/mL
concentration in plasma (rat [15]; 5 min): 60.4 ng/mL
concentration in plasma (rat [15]; 10 min): 43.5 ng/mL
concentration in plasma (rat [15]; 0.5 h): 13.1 ng/mL
concentration in plasma (rat [15]; 2 h): 6.7 ng/mL
concentration in plasma (rat [15]; 4 h): 1.9 ng/mL
concentration in plasma (rat [16]; 10 min): 30.2 ng/mL
concentration in plasma (rat [16]; 0.5 h): 31.3 ng/mL
concentration in plasma (rat [16]; 1 h): 11 ng/mL
concentration in plasma (rat [16]; 2 h): 2.5 ng/mL
concentration in plasma (rat [16]; 4 h): 1.6 ng/mL

CC1(C)C(C=C(Cl)Cl)C1C(=O)OCc1cccc(Oc2ccccc2)c1 (stereo not given) [Permethrin]
concentration in plasma (rat [17]; 10 min): 10.1 ng/mL
concentration in plasma (rat [17]; 0.5 h): 37 ng/mL
concentration in plasma (rat [17]; 1 h): 54.2 ng/mL
concentration in plasma (rat [17]; 2 h): 62.2 ng/mL
concentration in plasma (rat [17]; 4 h): 48.5 ng/mL
concentration in plasma (rat [17]; 8 h): 12.3 ng/mL
concentration in plasma (rat [17]; 12 h): 1.5 ng/mL
concentration in plasma (rat [18]; 0.5 h): 7.1 ng/mL
concentration in plasma (rat [18]; 1 h): 10.5 ng/mL
concentration in plasma (rat [18]; 2 h): 14.9 ng/mL
concentration in plasma (rat [18]; 4 h): 16 ng/mL
concentration in plasma (rat [18]; 8 h): 7.8 ng/mL
concentration in plasma (rat [18]; 12 h): 3.3 ng/mL
concentration in plasma (rat [19]; 0.5 h): 8.1 ng/mL
concentration in plasma (rat [19]; 1 h): 15.2 ng/mL
concentration in plasma (rat [19]; 2 h): 15.9 ng/mL
concentration in plasma (rat [20]; 10 min): 3 ng/mL
concentration in plasma (rat [20]; 12 h): 2.9 ng/mL
concentration in plasma (rat [21]; 1 h): 9.5 ng/mL
concentration in plasma (rat [21]; 4 h): 2.1 ng/mL
concentration in plasma (rat [22]; 0.5 h): 33.4 ng/mL
concentration in plasma (rat [22]; 1 h): 87.2 ng/mL
concentration in plasma (rat [22]; 2 h): 40.8 ng/mL
concentration in plasma (rat [22]; 4 h): 27.2 ng/mL
concentration in plasma (rat [4]; 10 min, dosed: Permethrin, 1.0000000000 mg/kg, iv): 15.9 ng/mL
concentration in plasma (rat [4]; 10 min, dosed: Permethrin, 5.0000000000 mg/kg, oral): 15 ng/mL
concentration in plasma (rat [4]; 0.5 h, dosed: Permethrin, 5.0000000000 mg/kg, oral): 44.4 ng/mL
concentration in plasma (rat [4]; 1 h, dosed: Permethrin, 1.0000000000 mg/kg, iv): 6.7 ng/mL
concentration in plasma (rat [4]; 1 h, dosed: Permethrin, 5.0000000000 mg/kg, oral): 64.2 ng/mL
concentration in plasma (rat [4]; 2 h, dosed: Permethrin, 5.0000000000 mg/kg, oral): 71 ng/mL
concentration in plasma (rat [4]; 4 h, dosed: Permethrin, 5.0000000000 mg/kg, oral): 53.2 ng/mL
concentration in plasma (rat [4]; 8 h, dosed: Permethrin, 5.0000000000 mg/kg, oral): 26.1 ng/mL
concentration in plasma (rat [4]; 12 h, dosed: Permethrin, 5.0000000000 mg/kg, oral): 8.4 ng/mL
concentration in plasma (rat [4]; 48 h, dosed: Permethrin, 5.0000000000 mg/kg, oral): 5.2 ng/mL
concentration in plasma (rat [23]; 0.25 h): 21.3 ng/mL
concentration in plasma (rat [23]; 0.5 h): 15.7 ng/mL
concentration in plasma (rat [23]; 1 h): 18.3 ng/mL
concentration in plasma (rat [23]; 2 h): 21.5 ng/mL
concentration in plasma (rat [23]; 4 h): 28.4 ng/mL
concentration in plasma (rat [23]; 8 h): 15.1 ng/mL
